Structures can show the parent of a compound that is named as a salt. Square brackets hold non-standard residues; d marks the D form. Peptide text beside a SMILES is read from it. dPhe(F5) = N[C@H](Cc1c(F)c(F)c(F)c(F)c1F)C(=O)O; dBpa = N[C@H](Cc1ccc(C(=O)c2ccccc2)cc1)C(=O)O; dCha = N[C@H](CC1CCCCC1)C(=O)O
Tested on: patients with locally advanced or metastatic solid tumors
Test: Phase I single agent study of CBP501 (Study A): MTD, DLT, safety, antitumor activity
Assay type: in vivo, human
Description: PK was examined in cycle (cy) 1. MTD is the level below that where 2 of 3-6 patients (pts) have DLT during cy 1-2.
A minimum of 3 patients were to be enrolled at each dose level, and 6 in the event of DLT.
(1) Neutropenia Gr 4 lasting 7 days (5 days in combination study) or Gr 3-4 neutropenia with fever and/or infection, (2) Thrombocytopenia Gr 4 (or grade 3 with bleeding), (3) Treatment-related non-hematological toxicity Gr 3 or 4 (excluding Gr 3 vomiting or diarrhea with sub-optimal prophylactic and curative treatment), and (4) Dosing delay greater than 2 weeks or treatment discontinuation due to treatment-emergent adverse events or related severe laboratory abnormalities.
The MTD was defined as the dose level below that in which DLT was observed during the first 2 cycles in at least 2 out of the 3-6 patients assessable for determination of MTD. The MTD was to be the RD for future studies. Patients evaluable for MTD were those who completed 2 treatment cycles or experienced DLT during the first 2 cycles.
(1) Echocardiogram or MUGA scan (baseline and every 2 cycles), (2) Cardiac enzymes (CPK-MB, CPK-MM, troponin; baseline and prior to each administration), and (3) ECG (before infusion, end of infusion, and 1 hr after infusion end).
(1) Pathologically-confirmed, locally advanced or metastatic solid tumors, refractory to standard therapy or for which conventional therapy is not reliably effective, (2) Presence of measurable disease according to RECIST criteria was not required, but was recommended in additional patients entered at MTD, (3) Age ≧18 years; Eastern Cooperative Oncology Group (ECOG) PS 0-2; Life expectancy >3 months, (4) Adequate organ function (hematological, hepatic, renal, metabolic), and (5) Signed informed consent

[1] = cardiac monitoring, both studies
[2] = single agent, 9.5 mg/m^2, 3 pts
[3] = single agent, 16.9 mg/m^2, 3 pts
[4] = single agent, 22.5 mg/m^2, 7 pts

N=C(N)NCCC[C@@H](NC(=O)[C@@H](CCCNC(=N)N)NC(=O)[C@@H](CCC(N)=O)NC(=O)[C@@H](CCCNC(=N)N)NC(=O)[C@@H](CCCNC(=N)N)NC(=O)[C@@H](CCCNC(=N)N)NC(=O)[C@@H](CC1CCCCC1)NC(=O)[C@@H](Cc1c(F)c(F)c(F)c(F)c1F)NC(=O)[C@@H](CO)NC(=O)[C@@H](Cc1c[nH]c2ccccc12)NC(=O)[C@@H](CO)NC(=O)[C@H](N)Cc1ccc(C(=O)c2ccccc2)cc1)C(=O)O [CBP501, H-(D)p-Benzoylphenylalanyl-(D)seryl-(D)tryptophyl-(D)seryl-(D)pentafluorophenylalanyl-(D)cyclohexylalanyl-(D)arginyl-(D)arginyl-(D)arginyl-(D)glutaminyl-(D)arginyl-(D)arginine acetate salt] (H-[dBpa][dS][dW][dS][dPhe(F5)][dCha][dR][dR][dR][dQ][dR][dR]-OH)
QTc > 500 ms (patients) (Single agent (16 pts), centralized ECG review): 0
Abdominal pain Gr 1-2 (Single-agent (n = 30)): 7
Abdominal pain Gr 3 (Single-agent (n = 30)): 2
Allergy (includes infusion reaction, flushing, rash, etc.) Gr 1-2 (Single-agent (n = 30)): 18
Diarrhea Gr 1-2 (Single-agent (n = 30)): 5
Diarrhea Gr 3 (Single-agent (n = 30)): 1
Fatigue Gr 1-2 (Single-agent (n = 30)): 14
Fatigue Gr 3 (Single-agent (n = 30)): 1
Headache Gr 1-2 (Single-agent (n = 30)): 3
Increased troponin Gr 3 (Single-agent (n = 30)): 1
Nausea/Vomiting Gr 1-2 (Single-agent (n = 30)): 5
Neutropenia Gr 1-2 (Single-agent (n = 30)): 3
QTc prolongation Gr 1-2 (Single-agent (n = 30)): 10
Thrombocytopenia Gr 1-2 (Single-agent (n = 30)): 4
Anemia Gr 1-2 (Single-agent (n = 30), 16 with baseline anemia): 22 (16*)
patients with QTc prolongation by >60 msec (both studies, centralized ECG review (16 + 24 patients)): 4
start of allergic reaction into the infusion (both studies, rash, hot flushes, urticaria): 10 to 60 min
pts with QTcB >500 msec [1]: 1
pts with QTcB prolongation >60 msec [1]: 2
time for troponin to return to normal levels (patient at DL 8, single-agent, Gr 3 troponin elevation): within one week
tolerability (single agent): well tolerated
Patients with allergic reaction Gr1 (single agent, 0.9 mg/m^2, 4 pts): 1
Patients with allergic reaction Gr2 (single agent, 7.2 mg/m^2, 3 pts): 3
Patients with allergic reaction Gr1 [2]: 1
Patients with allergic reaction Gr2 [2]: 2
Patients with allergic reaction Gr1 [3]: 1
Patients with allergic reaction Gr2 [3]: 1
Patients with allergic reaction Gr1 [4]: 3
Patients with allergic reaction Gr2 [4]: 4
pts with Gr 1-2 allergy (single agent, 30 pts treated (43%), interim summary): 13
Patients with allergic reaction Gr1 (single agent, TOTAL, 30 pts): 7
Patients with allergic reaction Gr2 (single agent, TOTAL, 30 pts): 11
MTD (single agent, doses up to 22.5 mg/m^2): not reached
DLT (single-agent, dose 22.5 mg/m^2, 7 pts, 11 cycles): 1

Source: patent publication US20100112089A1, “PEPTIDE COMPOUND AND USE THEREOF” (Takeda Pharmaceutical Company Limited, priority 2008, published 2010)
